# In ChEMBL document CHEMBL4257529, “Antifungal amphiphilic kanamycins: new life for an old drug” (Medchemcomm, 2018):
# Legend:
# Type in all cases: functional
# Candida albicans [1] = assay: Antifungal activity against Candida albicans 94-2181
# Fusarium graminearum [2] = assay: Synergistic antifungal activity against Fusarium graminearum infected in wheat plant assessed as fusarium head blight severity at 180 mg/L in presence of 0.438 L/ha prosaro 421 SC (reference value: 75%)
# Kluyveromyces marxianus = assay: Antifungal activity against Candida pseudotropicalis YOGI
# Aspergillus niger = assay: Antifungal activity against Aspergillus niger
# Fusarium graminearum [3] = assay: Synergistic antifungal activity against Fusarium graminearum infected in wheat plant assessed as fusarium head blight index at 360 mg/L in presence of 0.512 L/ha caramba (reference value: 53%)
# Fusarium graminearum [4] = assay: Antifungal activity against Fusarium graminearum B4-5A strain D after 48 hrs by microdilution assay
# Cryptococcus neoformans [5] = assay: Antifungal activity against Cryptococcus neoformans H99; conditions: var grubii H99
# Fusarium graminearum [6] = assay: Synergistic antifungal activity against Fusarium graminearum B4-5A strain A in presence of fluconazole after 48 hrs by checkerboard method
# Cryptococcus neoformans [7] = assay: Antifungal activity against Cryptococcus neoformans 94-2586
# Fusarium graminearum [8] = assay: Synergistic antifungal activity against Fusarium graminearum B4-5A strain E assessed as fluconazole MIC after 48 hrs by microdilution assay
# Fusarium graminearum [9] = assay: Antifungal activity against Fusarium graminearum infected in wheat plant assessed as fusarium head blight severity at 360 mg/L (reference value: 75%)
# Fusarium graminearum [10] = assay: Antifungal activity against Fusarium graminearum infected in wheat plant assessed as spikelet curling at 360 mg/L (reference value: 51.4%)
# Fusarium graminearum [11] = assay: Synergistic antifungal activity against Fusarium graminearum infected in wheat plant assessed as fusarium head blight index at 360 mg/L in presence of 0.438 L/ha prosaro 421 SC (reference value: 53%)
# Fusarium graminearum [12] = assay: Antifungal activity against Fusarium graminearum B4-5A strain C after 48 hrs by microdilution assay
# Candida tropicalis = assay: Antifungal activity against Candida tropicalis 95-41
# Staphylococcus aureus = assay: Antibacterial activity against Staphylococcus aureus ATCC 25923
# Candida parapsilosis [13] = assay: Antifungal activity against resistant Candida parapsilosis; conditions: Lodderomyces parapsilosis
# Candida albicans [14] = assay: Antifungal activity against Candida albicans ATCC 10231
# Fusarium graminearum [15] = assay: Synergistic antifungal activity against Fusarium graminearum infected in wheat plant assessed as contamination of wheat heads and kernels with deoxynivalenol at 360 mg/L in presence of 4 ml/L pyraclostrobin (reference value: 1.2 ppm)
# Fusarium graminearum [16] = assay: Antifungal activity against Fusarium graminearum B4-5A strain A after 48 hrs by microdilution assay
# Fusarium graminearum [17] = assay: Synergistic antifungal activity against Fusarium graminearum infected in wheat plant assessed as fusarium head blight incidence at 360 mg/L in presence of 0.438 L/ha prosaro 421 SC (reference value: 70%)
# Micrococcus luteus = assay: Antibacterial activity against Micrococcus luteus ATCC 10240
# Fusarium graminearum [18] = assay: Synergistic antifungal activity against Fusarium graminearum infected in wheat plant assessed as fusarium head blight index at 180 mg/L in presence of 0.512 L/ha caramba (reference value: 53%)
# Fusarium graminearum [19] = assay: Antifungal activity against Fusarium graminearum infected in wheat plant assessed as fusarium head blight index at 360 mg/L (reference value: 53%)
# Fusarium graminearum [20] = assay: Antifungal activity against Fusarium graminearum B-4-5A
# Fusarium graminearum [21] = assay: Synergistic antifungal activity against Fusarium graminearum B4-5A strain A assessed as fluconazole MIC after 48 hrs by microdilution assay
# Candida albicans [22] = assay: Antifungal activity against resistant Candida albicans ATCC 64124
# Diutina rugosa = assay: Antifungal activity against Candida rugosa 95-967
# Fusarium graminearum [23] = assay: Synergistic antifungal activity against Fusarium graminearum infected in wheat plant assessed as fusarium head blight severity at 360 mg/L in presence of 0.438 L/ha prosaro 421 SC (reference value: 75%)
# Clavispora lusitaniae = assay: Antifungal activity against Candida lusitaniae 95-767
# Fusarium graminearum [24] = assay: Synergistic antifungal activity against Fusarium graminearum B4-5A strain C in presence of fluconazole after 48 hrs by microdilution assay
# Fusarium graminearum [25] = assay: Antifungal activity against Fusarium graminearum infected in wheat plant assessed as fusarium head blight severity at 180 mg/L (reference value: 75%)
# Fusarium graminearum [26] = assay: Synergistic antifungal activity against Fusarium graminearum infected in wheat plant assessed as fusarium head blight incidence at 180 mg/L in presence of 0.512 L/ha caramba (reference value: 70%)
# Escherichia coli = assay: Antibacterial activity against Escherichia coli TG1
# Fusarium graminearum [27] = assay: Synergistic antifungal activity against Fusarium graminearum B4-5A strain A in presence of fluconazole after 48 hrs by microdilution assay
# Fusarium graminearum [28] = assay: Synergistic antifungal activity against Fusarium graminearum infected in wheat plant assessed as spikelet curling at 360 mg/L in presence of 4 ml/L pyraclostrobin (reference value: 51.4%)
# Fusarium graminearum [29] = assay: Synergistic antifungal activity against Fusarium graminearum B4-5A strain B in presence of fluconazole after 48 hrs by microdilution assay
# Candida parapsilosis [30] = assay: Antifungal activity against sensitive Candida parapsilosis; conditions: Lodderomyces parapsilosis
# Fusarium graminearum [31] = assay: Synergistic antifungal activity against Fusarium graminearum B4-5A strain D in presence of fluconazole after 48 hrs by microdilution assay
# Fusarium graminearum [32] = assay: Synergistic antifungal activity against Fusarium graminearum infected in wheat plant assessed as fusarium head blight incidence at 360 mg/L in presence of 0.512 L/ha caramba (reference value: 70%)
# Cryptococcus neoformans [33] = assay: Antifungal activity against Cryptococcus neoformans 90-26
# Fusarium graminearum [34] = assay: Synergistic antifungal activity against Fusarium graminearum B4-5A strain D in presence of fluconazole after 48 hrs by checkerboard method
# Aspergillus flavus = assay: Antifungal activity against Aspergillus flavus
# Fusarium graminearum [35] = assay: Synergistic antifungal activity against Fusarium graminearum infected in wheat plant assessed as fusarium head blight severity at 360 mg/L in presence of 0.512 L/ha caramba (reference value: 75%)
# Fusarium graminearum [36] = assay: Synergistic antifungal activity against Fusarium graminearum infected in wheat plant assessed as fusarium head blight incidence at 180 mg/L in presence of 0.438 L/ha prosaro 421 SC (reference value: 70%)
# Fusarium graminearum [37] = assay: Antifungal activity against Fusarium graminearum infected in wheat plant assessed as contamination of wheat heads and kernels with deoxynivalenol at 360 mg/L (reference value: 1.2 ppm)
# Fusarium graminearum [38] = assay: Antifungal activity against Fusarium graminearum infected in wheat plant assessed as fusarium head blight incidence at 360 mg/L (reference value: 70%)
# Candida albicans [39] = assay: Antifungal activity against sensitive Candida albicans MYA-2876
# Fusarium graminearum [40] = assay: Antifungal activity against Fusarium graminearum infected in wheat plant assessed as fusarium head blight incidence at 180 mg/L (reference value: 70%)
# Fusarium oxysporum = assay: Antifungal activity against Fusarium oxysporum
# Fusarium graminearum [41] = assay: Synergistic antifungal activity against Fusarium graminearum infected in wheat plant assessed as contamination of wheat heads and kernels with deoxynivalenol at 360 mg/L in presence of 2.8 ml/L proline 480 SC (reference value: 1.2 ppm)
compound,measurement,setting,value
CCCCCCCCS(=O)(=O)OC[C@H]1O[C@H](O[C@@H]2[C@@H](O)[C@H](O[C@H]3O[C@H](CN)[C@@H](O)[C@H](O)[C@H]3O)[C@@H](N)C[C@H]2N)[C@H](O)[C@@H](N)[C@@H]1O,MIC,Candida albicans [1],> 7.8 µg/mL
same,Activity,Fusarium graminearum [2],55%
same,MIC,Kluyveromyces marxianus,15.6 µg/mL
same,MIC,Aspergillus niger,> 150 µg/mL
same,Activity_index,Fusarium graminearum [3],8%
same,MIC,Fusarium graminearum [4],16 µg/mL
same,MIC,Cryptococcus neoformans [5],3.9 to 7.8 µg/mL
same,fractional inhibitory concentration index (FICI),Fusarium graminearum [6],0.37
same,MIC,Cryptococcus neoformans [7],3.9 to 7.8 µg/mL
same,MIC,Fusarium graminearum [8],12.5 µg/mL
same,Activity,Fusarium graminearum [9],62%
same,Activity,Fusarium graminearum [10],34.7%
same,Activity_index,Fusarium graminearum [11],5%
same,MIC,Fusarium graminearum [12],16 µg/mL
same,MIC,Candida tropicalis,15.6 µg/mL
same,MIC,Staphylococcus aureus,250 µg/mL
same,MIC,Candida parapsilosis [13],15.6 to 31.3 µg/mL
same,MIC,Candida albicans [14],15.6 µg/mL
same,Activity,Fusarium graminearum [15],1.6 ppm
same,MIC,Fusarium graminearum [16],16 µg/mL
same,Activity,Fusarium graminearum [17],10%
same,MIC,Micrococcus luteus,62.5 µg/mL
same,Activity_index,Fusarium graminearum [18],7%
same,Activity_index,Fusarium graminearum [19],8%
same,MIC,Fusarium graminearum [20],7.8 µg/mL
same,MIC,Fusarium graminearum [21],25 µg/mL
same,MIC,Candida albicans [22],31.3 µg/mL
same,MIC,Diutina rugosa,15.6 µg/mL
same,Activity,Fusarium graminearum [23],54%
same,MIC,Clavispora lusitaniae,> 7.8 µg/mL
same,MIC,Fusarium graminearum [24],4 µg/mL
same,Activity,Fusarium graminearum [25],60%
same,Activity,Fusarium graminearum [26],15%
same,MIC,Escherichia coli,125 to 250 µg/mL
same,MIC,Fusarium graminearum [27],4 µg/mL
same,Activity,Fusarium graminearum [28],4.7%
same,MIC,Fusarium graminearum [29],4 µg/mL
same,MIC,Candida parapsilosis [30],15.6 µg/mL
same,MIC,Fusarium graminearum [31],8 µg/mL
same,Activity,Fusarium graminearum [32],13%
same,MIC,Cryptococcus neoformans [33],3.9 to 7.8 µg/mL
same,fractional inhibitory concentration index (FICI),Fusarium graminearum [34],0.5
same,MIC,Aspergillus flavus,300 µg/mL
same,Activity,Fusarium graminearum [35],61%
same,Activity,Fusarium graminearum [36],11%
same,Activity,Fusarium graminearum [37],1.4 ppm
same,Activity,Fusarium graminearum [38],14%
same,MIC,Candida albicans [39],15.6 µg/mL
same,Activity,Fusarium graminearum [40],15%
same,MIC,Fusarium oxysporum,31.3 µg/mL
same,Activity,Fusarium graminearum [41],0.3 ppm
